Source: US11234988B2, “Fluorohydroxyproline derivatives useful in the preparation of proteolysis targeted chimeras” (UNIVERSITY OF DUNDEE, priority 2016, dated 2022)

How the values were obtained:
[1] = target: VBC complex (Homo sapiens, UniProt P40337); test: Isothermal titration calorimetry (ITC) of VHL ligands against VBC; type: binding; conditions: FIG. 3
Experimental: ITC Data on the Binding of VHL Ligands 14b and 14d
Titrations were performed on an ITC200 micro-calorimeter (GE Healthcare). Compounds 14b and 14d were diluted from a DMSO stock solution to 0.6 mM in a 20 mM HEPES, 150 mM NaCl, 1 mM TCEP (pH 7) buffer. The compound was titrated against 60 μM VBC complex, equilibrated in the same buffer. Total amount of DMSO in the buffer was 3%. The data were fitted to a single binding site model to obtain the stoichiometry n, the dissociation constant Kd and the enthalpy of binding ΔH using the Microcal LLC ITC200 Origin software provided by the manufacturer.

[2] = target: VHL (Homo sapiens, UniProt P40337); conditions: as reported in Galdeano et al. 2014 and Zengerle et al. 2015; cited from earlier work
[3] = tested on: BRD4; conditions: Zengerle et al. 2015; cited from earlier work

Chain of VBC complex (P40337 54-213 limits assumed): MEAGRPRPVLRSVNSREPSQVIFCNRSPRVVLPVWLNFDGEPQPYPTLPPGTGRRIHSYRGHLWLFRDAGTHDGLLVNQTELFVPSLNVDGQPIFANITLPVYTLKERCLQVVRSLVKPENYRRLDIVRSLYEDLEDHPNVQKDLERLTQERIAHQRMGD
Chain of VBC complex (Q15370 1-104 partner limits assumed): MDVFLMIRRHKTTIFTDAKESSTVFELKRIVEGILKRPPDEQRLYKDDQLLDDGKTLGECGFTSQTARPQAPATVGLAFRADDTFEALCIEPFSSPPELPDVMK
Chain of VBC complex (Q15369 17-112 partner limits assumed): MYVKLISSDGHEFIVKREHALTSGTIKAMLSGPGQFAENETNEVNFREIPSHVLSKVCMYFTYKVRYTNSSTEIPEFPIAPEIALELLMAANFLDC
Chain of VHL (P40337 54-213 limits assumed): as the sequence (P40337 54-213 limits assumed) above
Chain of VHL (Q15370 1-104 partner limits assumed): as the sequence (Q15370 1-104 partner limits assumed) above
Chain of VHL (Q15369 17-112 partner limits assumed): as the sequence (Q15369 17-112 partner limits assumed) above

Row | Kd [1] | ΔH [1] | ΔS [1] | Structure (SMILES) | binding to VHL [2] | removal of BRD4 over BRD2 and BRD3 [3]
1 | 235 nM | -6.566 kcal/mol | 8.30 cal/mol/deg | CC(=O)N[C@H](C(=O)N1C[C@H](O)[C@H](F)[C@H]1C(=O)NCc1ccc(-c2scnc2C)cc1)C(C)(C)C [Compound 14b] |  | 
2 | 235 nM | -6.566 kcal/mol | 8.30 cal/mol/deg | CC(=O)N[C@H](C(=O)N1C[C@H](O)[C@@H](F)[C@H]1C(=O)NCc1ccc(-c2scnc2C)cc1)C(C)(C)C [Compound 14d] |  | 
3 |  |  |  | Cc1ncsc1-c1ccc(CNC(=O)[C@@H]2C[C@@H](O)CN2C(=O)[C@@H](NC(=O)COCCOCCOCCNC(=O)C[C@@H]2N=C(c3ccc(Cl)cc3)c3c(sc(C)c3C)-n3c(C)nnc32)C(C)(C)C)cc1 [MZ1, (2S,4R)-1-((S)-2-(tert-butyl)-17-((S)-4-(4-chlorophenyl)-2,3,9-trimethyl-6H-thieno[3,2-f][1,2,4]triazolo[4,3-a][1,4]diazepin-6-yl)-4,16-dioxo-6,9,12-trioxa-3,15-diazaheptadecanoyl)-4-hydroxy-N-(4-(4-methylthiazol-5-yl)benzyl)pyrrolidine-2-carboxamide] | found to bind VHL | potently and rapidly induce reversible, long-lasting and unexpectedly selective removal of BRD4 over BRD2 and BRD3
4 |  |  |  | Cc1ncsc1-c1ccc(CNC(=O)[C@@H]2C[C@H](O)CN2C(=O)[C@@H](NC(=O)COCCOCCOCCNC(=O)C[C@@H]2N=C(c3ccc(Cl)cc3)c3c(sc(C)c3C)-n3c(C)nnc32)C(C)(C)C)cc1 [cisMZ1, (2S,4S)-1-((S)-2-(tert-butyl)-17-((S)-4-(4-chlorophenyl)-2,3,9-trimethyl-6H-thieno[3,2-f][1,2,4]triazolo[4,3-a][1,4]diazepin-6-yl)-4,16-dioxo-6,9,12-trioxa-3,15-diazaheptadecanoyl)-4-hydroxy-N-(4-(4-methylthiazol-5-yl)benzyl)pyrrolidine-2-carboxamide] | did not exhibit any measureable binding affinity for VHL | 
